{"source": "patent US20220218679A1", "about": "“NOVEL COMPOUNDS AND PHARMACEUTICAL COMPOSITIONS THEREOF FOR THE TREATMENT OF INFLAMMATORY DISORDERS” (Galapagos NV, priority 2019, published 2022)", "key": {"THP-1-Lucia NFκB cells": {"tested_on": "THP-1-Lucia NFκB cells", "assay": "THP1-Lucia NFκB reporter assay (LPS, IL-1β, TNFα triggering)", "assay_type": "cell-based", "details": "for EC50: 24 h incubation", "description": "This assay was used to evaluate the IRAK4 selectivity and potency of the compounds of the invention upon IRAK4 dependent (LPS and IL-1β) and independent triggering (TNFα), in a THP1-Lucia NFκB reporter assay.\nTHP-1-Lucia NFκB cells (Invivogen—5, rue Jean Rodier 31400 Toulouse France—cat #thp1-nfkb) were cultivated as recommended by the supplier using split cycles each cycle comprising a succession of thawing/expansion/seeding. The data reported were generated using cells having between 3 to 9 cycles. On the day of the experiment THP-1-Lucia NFκB cells were counted and seeded at a density of 1,000,000 cells/mL in culture medium (RPMI 1640 (Gibco, Cat #52400-025)+10% FBS (Sigma, Cat #F7524-500ML)+1% P/S (Gibco, Cat #15140-122)) by pipetting 54 μL/well in a 384 well plate. Thereafter, 6 μL of a 10× trigger solution was added to all wells, at final concentrations of 2.5, 10 and 3 ng/mL for respectively LPS, TNFα and IL-1β, except for ‘no trigger wells’ where 6 μL culture medium only was added.\nAfter trigger addition, compounds were added with a digital compound dispenser, in a 8-points concentration range, using 3-fold dilution steps and normalizing the final DMSO concentration to 0.2% DMSO in all wells.\nAfter 24 h incubation at 37° C., 5% CO2, 40 μL of supernatant was collected per well and transferred to a new 384 well plate that was then stored at −20° C. until further use.\nFor the readout, supernatant samples were thawed on ice and 5 μL sample was transferred from each well to a new 384-well plate. 20 μL of Quanti-Luc solution (Quanti-Luc powder (Invivogen, Cat #rep-qlc1) dissolved in 25 mL sterile water as indicated by the manufacturer) was added to each well after which luminescence was immediately measured on an Envision instrument.\nTo measure the inhibition of LPS/TNFα/IL-1β-induced NFκB-reporter activity, percentage inhibition (PIN) values were calculated for all concentrations tested, compared to controls. […]"}, "[1]": {"tested_on": "MIA induced inflammatory hypersensitivity to pain", "assay": "MIA rat pain model (weight bearing)", "assay_type": "in vivo, Male Sprague Dawley", "description": "5.11.1. Principle of the Assay\nThe mono-iodoacetate (MIA) model has become a standard model established by Van der Kraan (van der Kraan et al., 1989) for modelling joint disruption in OA in rat.\nIntra-articular injection of MIA in rodents reproduces OA-like lesions and functional impairment that can be analyzed and quantified. MIA is an inhibitor of […], disrupting cellular glycolysis and eventually resulting in cell death (van der Kraan et al., 1989).\nThe MIA pain mouse model described by Pitcher et al. (Pitcher et al. 2016) is used to evaluate the effect of a test compound against tactile allodynia by intra-articular injection of MIA causes chondrocyte cell death, leading to cartilage degeneration and subsequent subchondral bone alterations such as appearance of bone osteophytes (Janusz et al., 2001).\nMIA is the one most often used, particularly to test the efficacy of pharmacologic agents to treat pain, as this model generates a reproducible, robust, and rapid pain-like phenotype that can be graded by altering MIA dosage.\nMale Sprague Dawley (250-300 g) were housed at 22±1° C. and in light-controlled environment (lights on from 7 am to 8 pm) with ad libitum access to food and water.\nInflammatory hypersensitivity to pain was induced by an injection of Monosodium Iodoacetate (MIA) 25 ul 80 mg/ml solution, into the left knee joint. Animals developed inflammatory response within 3 days post MIA.\nThe test compounds were administered to the treatment groups on a […] basis, starting from day 3 (D3), and continued until the end-point day on D28.\nOn day 3, weight-bearing measurements were taken and animals ranked and randomized to treatment groups.\nOn the test days, pre-dose allodynia was evaluated prior to dosing, and the effects of the administered compounds assessed 2 hours post dosing.\nThe test compounds were administered to the treatment groups on daily basis, according to treatment group, (some were dosed days 3-7 post MIA, and some were dosed days 24-28 post MIA) and 2 hours post dosing weight-bearing measurements were taken.\nThe negative control group (n=6) was daily dosed per os with the vehicle (methylcellulose, MC 0.5%), the positive control group (n=10) was daily dosed per os with Celecoxib (50 mg/kg), and the test compound group (n=10) was daily dosed per os, with 0.5% MC/Solutol for days 3-7 post MIA (Inflammatory Phase). […]\nFor each readout, mean and sem are calculated. A difference statistically significant between intact or treated groups and in MIA vehicle group is evaluated with Prism software using a Two-way ANOVA (for treatment groups) followed by a Dunnett's multiple comparisons post-hoc test. *: p<0.05; **: p<0.01; ***: p<0.001 versus MIA Vehicle group."}}, "note": "Where two headings read alike, the source gives them in different places."}
{"molecule": "COc1cn2nc(CCC(C)(C)O)cc2cc1NC(=O)c1cccn(C2CC2)c1=O", "note": "[Compound 1, 1-cyclopropyl-N-[2-(3-hydroxy-3-methylbutyl)-6-methoxypyrazolo[1,5-a]pyridin-5-yl]-2-oxopyridine-3-carboxamide]", "values": [{"measurement": "EC50", "setting": "THP-1-Lucia NFκB cells; IL-1β trigger 3 ng/mL, read-out: IL-1β driven NFκB-reporter activity, average pEC50 (converted)", "value": 100, "unit": "nM"}, {"measurement": "EC50", "setting": "THP-1-Lucia NFκB cells; LPS trigger 2.5 ng/mL, read-out: LPS driven NFκB-reporter activity, average pEC50 (converted)", "value": 100, "unit": "nM"}, {"measurement": "TNFα mediated NFκB-reporter activity", "setting": "THP-1-Lucia NFκB cells; TNFα trigger 10 ng/mL, 24 h incubation (IRAK4 independent)", "value": "no activity was observed"}, {"measurement": "reversal of inflammatory response on weight bearing", "setting": "[1]; 5 mg/kg daily per os, days 5-7", "value": "significantly reversed the inflammatory response"}, {"measurement": "reversal of inflammatory response on weight bearing", "setting": "[1]; 5 mg/kg daily per os, days 26-28", "value": "significantly reversed the inflammatory response"}, {"measurement": "reversal of inflammatory response on weight bearing", "setting": "[1]; 30 mg/kg daily per os, days 3-7", "value": "significantly reversed the inflammatory response"}, {"measurement": "reversal of inflammatory response on weight bearing", "setting": "[1]; 30 mg/kg daily per os, days 26-28", "value": "significantly reversed the inflammatory response"}]}
